Where “and” joins values, the source holds several entries; their conditions need not be identical. Equal values may be shown once.
Assays:
progesterone production = assay: Progesterone olfaction in postmenopausal women; type: in vivo; conditions: 10 postmenopausal women; unpublished studies
Source text: (§1) These studies raised the question: is this action by olfaction unique to testosterone or can the effect be observed with other hormones? To answer this question, Applicant studied progesterone olfaction in 10 postmenopausal women. Progesterone is the primary female sex hormone and testosterone is the primary male sex hormone. […] This is a ground-breaking discovery: smelling the hormones that have been tested caused the body to produce the hormone that is smelled. However, it is still unknown whether hormone olfaction will work with hormones other than sex hormones.

insulin resistance = conditions: type 2 diabetic men with low testosterone, weekly injections for 24 weeks; cited from earlier work
blood sugar level = assay: Blood sugar level in men before and after testosterone olfaction; type: in vivo
Experimental: To evaluate the possible role of testosterone in blood sugar reduction in diabetes type 2, the following protocol was designed.
Ten men between the ages of 30 to 90 volunteered to participate in this study as subjects. Approximately one and a half hours after having a meal the subject came to Applicant's office. Prior to the testosterone olfaction the blood sugar level was measured.
The subject produced an adequately sized drop of blood from a finger using a lancing device. The blood sugar was measured with a Contour Blood Glucose Monitoring System, Model 9546 C, Serial Number FB00450. The drop of blood was picked up by a Contour blood glucose test strip 7097C specific for the instrument and within the usable date range. This value was recorded as mg/dL.
A drop of pure testosterone diluted 1:1000 in ethanol was sprayed onto the palm of the hand and smelled by the subject. […] This concentration more efficient than the undiluted hormone.
A second blood drop was immediately taken and measured and recorded in the same manner as described above.

[1] = system: free testosterone production; assay: Testosterone production after olfaction of testosterone or truffle extract; type: in vivo; conditions: olfaction of pure testosterone; unpublished research
Source text: Olfaction, the sense of smell, is critical for the survival of almost all creatures. Humans are able to distinguish over 10,000 different odor molecules. With every inhalation, currents of air swirl through the nostrils over the bony turbinates in the nose that contain receptors in the olfactory epithelium. Olfactory mucosa protects the olfactory epithelium and allows odors to dissolve for detection by olfactory receptors. The cilia projecting from the olfactory knob contain receptors for odorants. The cilia project from the knob directly into the […]. The interaction of the right molecule with the right receptor causes a structural transformation of the receptor, which gives rise to an electrical signal to the olfactory bulb and thence to the areas in the limbic brain that perceive it as the original smell.
as §1

## CC(=O)[C@H]1CC[C@H]2[C@@H]3CCC4=CC(=O)CC[C@]4(C)[C@H]3CC[C@]12C [progesterone]
Progesterone production
  progesterone production after olfaction: does initiate production of progesterone

## C[C@]12CC[C@H]3[C@@H](CCC4=CC(=O)CC[C@@]43C)[C@@H]1CC[C@@H]2O [testosterone]
Insulin resistance
  ability to utilize insulin: improved
Blood sugar level; average of ten subjects, after testosterone olfaction
  percent reduction of sugar level, average for all ten: 36%
Blood sugar level; individual subject, before vs after olfaction of testosterone 1:1000 in ethanol
  PERCENT CHANGE of blood sugar: 56% and 30% (2×) and 38% and 19% and 17% and 34% and 70% and 53% and 12%
Blood sugar level; individual subject, measured immediately after smelling testosterone diluted 1:1000 in ethanol, about 1.5 h after a meal, finger blood
  blood sugar AFTER OLFACTION: 86 mg/dL (2×) and 99 mg/dL (2×) and 109 mg/dL and 107 mg/dL and 130 mg/dL and 158 mg/dL and 98 mg/dL and 92 mg/dL
Blood sugar level; prior studies, other concentrations of testosterone
  effect of other concentrations compared with 1:1000 dilution: essentially the same effect
Blood sugar level; testosterone olfaction used alone, ten men
  effect on blood sugar level: lowers the blood sugar level
Blood sugar level; time to lance the finger, collect the blood and test
  time in which olfaction lowers blood sugar: about 30 seconds
[1]
  testosterone production after olfaction: does initiate testosterone production
